How the values were obtained:
[1] = system: Glycine max; assay: Number of nodules in soybean plants inoculated with Bradirhizobium japonicum and watered with miPEP; type: in vivo; conditions: watering with 0.1 μM miPEP vs solvent (FIGS. 2, 9) or control peptide (FIG. 5)
Description: (§1) After sterilisation of the grains for 3 min in bleach diluted ¼, then rinsing with sterile water, the grains are incubated for 2 hours in water. Lastly, the grains are placed in a petri dish with damp paper towels at 28° C. Once sprouted, the grains are placed in a small pot containing oil dry® medium under a glass cover. After a few days' growth, the plants of which the development is uniform are selected for the experiment and transferred into a larger pot.
(§2) The bacteria are placed in culture in Campbel liquid medium (K2PO4:0.5 g/l, MgSO4 7H2O: 0.2 g/l, NaCl: 0.1 g/l, mannitol: 10 g/l, yeast extract: 2.5 g/l, Casamino acid: 0.5 g/l) (5 ml) at 28° C., then transferred to an Erlenmeyer flask containing 100 ml of Campbel medium. After a few days of culture, when the DO is 0.3 at 595 nm, the 100 ml of culture of B. japonicum were centrifuged for 30 min at 4000 rpm. The supernatant was discarded and the pellet resuspended in “caisson” culture medium (Lullien et al., Plant gene expression in effective and ineffective root nodules of alfalfa (Medicago sativa). Plant Mol Biol 9: 469-478, 1987) to achieve a DO of 0.05 at 595 nm. Each plant is inoculated with 20 ml of this solution. The plants are regularly watered with the “caisson” medium.
(§3) The treatment is performed by watering plants with the concentrated solution of miPEP or the equivalent of solvent solution for the control treatment. […]

[2] = system: ENOD40-1; assay: Expression of the gene ENOD40-1 in roots of watered soybean plants (qRT-PCR); type: in vivo, Glycine max; conditions: plants watered with miPEP172c at 0,01 μM vs control peptide at 0.01 μM (FIG. 6)
Description: (§4) Each experiment was repeated from two to three times.
(§5) The plants are regularly watered with the “caisson” medium.
(§6) The treatments are performed every two days.

[3] = system: Hb2; assay: Expression of the gene Hb2 in roots of watered soybean plants (qRT-PCR); type: in vivo, Glycine max; conditions: plants watered with miPEP172c at 0,01 μM vs control peptide at 0.01 μM (FIG. 6)
Description: as §4, §5, §6

[4] = system: Glycine max; assay: Root mass (fresh root weight) of soybean plants watered with miPEP; type: in vivo; conditions: watering with miPEP172c vs control peptide at 0.01 μM (FIG. 7)
Description: as §1, §2, §3

[5] = system: Glycine max; assay: Fresh pod weight of soybean plants watered with miPEP; type: in vivo; conditions: watering with 0.1 μM miPEP172c vs solvent (FIG. 4)
Description: as §1, §2, §3

[6] = system: NSP1; conditions: plants watered with miPEP172c at 0,01 μM vs control peptide at 0.01 μM (FIG. 6)
Description: as §1, §2, §3

[7] = system: Glycine max; assay: Nitrogen concentration in the aerial parts of soybean plants watered with miPEP; type: in vivo; conditions: watering with 0.1 μM miPEP172c vs solvent (FIG. 3)
Description: The “nitrogen content” corresponds to the concentration of nitrogen in the plant or in part of the plant. For example, it can be the concentration of nitrogen in the aerial parts in g of nitrogen per kg of dry leaf weight. This concentration of nitrogen can be determined by techniques known to a person skilled in the art. For example, one method consists of burning a sample of known mass at an elevated temperature (approximately 900° C.) in the presence of oxygen, leading to a release of carbon dioxide, water, and nitrogen. The gases are then passed over particular columns (such as an aqueous potassium hydroxide solution), which absorb the carbon dioxide and water. A column containing a detector of thermal conductivity at the end is then used to separate the nitrogen from all residual carbon dioxide and the water, and the content of residual nitrogen is quantified.
as §5, §6

[8] = system: NNC1; assay: Expression of the gene NNC1 in roots of watered soybean plants (qRT-PCR); type: in vivo, Glycine max; conditions: plants watered with miPEP172c at 0,01 μM vs control peptide at 0.01 μM (FIG. 6)
Description: as §4, §5, §6

[9] = system: miR172c; assay: Measurement of the expression of miR172c in roots of watered soybean plants (qRT-PCR); type: in vivo, Glycine max; conditions: plants watered with miPEP172c at 0.1 μM vs control (FIG. 1) or 0.01 μM vs control peptide (FIG. 6)
Description: as §4, §5, §6

[10] = system: nifH; assay: Expression of the gene nifH in roots of watered soybean plants (qRT-PCR); type: in vivo, Glycine max; conditions: plants watered with miPEP172c at 0,01 μM vs control peptide at 0.01 μM (FIG. 6)
Description: as §4, §5, §6

[11] = system: NIN; assay: Expression of the gene NIN in roots of watered soybean plants (qRT-PCR); type: in vivo, Glycine max; conditions: plants watered with miPEP172c at 0,01 μM vs control peptide at 0.01 μM (FIG. 6)
Description: as §4, §5, §6

[12] = system: nifD; assay: Expression of nifD revealed by nifD-LacZ fusions in nodules; type: in vivo, Glycine max; conditions: nodules of plants treated with miPEP172c vs control peptide (FIGS. 6 and 8)
Description: as §1, §2, §3

miPEP167c: peptide MKGVHHFFHHKYVGLRG coded by an open reading frame of the primary transcript of miR167c in Glycine max (Glycine max)
number of nodules (per gram of fresh root weight) [1]: significantly increases

miPEP172c: peptide MWVLCLFCWPTYTHGS coded by an open reading frame of the primary transcript of miR172c in Glycine max (SEQ ID NO: 2; Glycine max)
relative expression of the gene ENOD40-1 [2]: increase
number of nodules (per gram of fresh root weight) [1]: significantly increases
relative expression of the gene Hb2 [3]: increase
development of the roots (fresh root weight) [4]: No effect
fresh pod weight [5]: significantly increases
relative expression of the gene NSP1 [6]: increase
nitrogen content of the aerial parts [7]: significantly increases
relative expression of the gene NNC1 [8]: reducing
relative expression of miR172c [9]: increases
relative expression of the gene NifH [10]: increase
relative expression of the gene NIN [11]: increase
fixation of nitrogen (NifH expression by RT-qPCR and nifD::LacZ fusions) [12]: effective fixation of nitrogen

Source: US20250127136A1, “NOVEL METHOD FOR PROMOTING NODULATION IN PLANTS” (UNIVERSITE TOULOUSE III-PAUL SABATIER, priority 2015, published 2025)
